A short description of this data set: recombinant barcode read abundance after kanamycin selection (control-corrected) (log10(CPM+1)); higher = more efficient recombination; sequences stand for … in AGTGCAGAGAAAATCGGCCAGTTTTCTCTGCCTGCAGTCCGCATGCCGT…AGATTTATGCAGCGGACTGCCTTTCTCCCAAAGTGATAAACCGGACAGTATCATGGACCGGTTTTCCCGGTAATCCGTATTTGCAAGGTTGGTTTCACT; site = the 11-nt target. Summed up:
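Duplicate cultures were plated either on chloramphenicol/ampicillin LB agar, serving as control, or on chloramphenicol/ampicillin/kanamycin with 0.1 mM IPTG. These came from a pooled E. coli library co-electroporated with a donor plasmid, each member pairing a target with an IS621 bridge RNA target-binding loop. Recombination efficiency equals averaged, control-corrected counts per million of recombinant-junction barcodes. It is listed as log10(CPM+1).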
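Note: IS621 recombinase and bridge RNA in Escherichia coli cells.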

For “AGACCACCTTGGGTTCTAACCTGTTGCCT (site ATACCACCTAG)”, the “recombinant barcode read abundance (log10)” value is 0.847.

“AGACGGACTTGGGTTCTAACCTGTTGCCA (site AGACGGACTTG)”: the “recombinant barcode read abundance (log10)” value turned out to be 1.68.

In the case of “AGACGGACTTGGGTTCTAACCTGTTGCCA (site CTTGCTCCTAT)”, the “recombinant barcode read abundance (log10)” value was found to be 0.145.

On to “AGACTAGCTTGGGTTCTAACCTGTTGCGT (site AGACTAGCTAC)”, for which the “recombinant barcode read abundance (log10)” value amounted to 2.51.

In the case of “AGACTAGCTTGGGTTCTAACCTGTTGCGT (site TTACTAGCTAC)”, the “recombinant barcode read abundance (log10)” value was 0.255.

For the sequence “AGACTCCCTTGGGTTCTAACCTGTTGCCT (site AGACTCCCTAG)”, the “recombinant barcode read abundance (log10)” value amounted to 1.22.

With “AGACTCCCTTGGGTTCTAACCTGTTGCCT (site AGCCTCCCTAG)”, the “recombinant barcode read abundance (log10)” value came out at 0.223.

In the case of “AGACTCCCTTGGGTTCTAACCTGTTGCCT (site AGGCTCCCTAG)”, the “recombinant barcode read abundance (log10)” value came to 0.0602.

Turning to “AGACTCCCTTGGGTTCTAACCTGTTGCCT (site AGTCTCCCTAG)”, the “recombinant barcode read abundance (log10)” value turned out to be 0.213.

Regarding “AGAGAACCTTGGGTTCTAACCTGTTGCCT (site AGAGAACCTAG)”, the “recombinant barcode read abundance (log10)” value worked out at 2.33.

For the sequence “AGAGAACCTTGGGTTCTAACCTGTTGCCT (site CGAGAACCTAG)”, the “recombinant barcode read abundance (log10)” value is 0.415.

As to “AGAGAACCTTGGGTTCTAACCTGTTGCCT (site GGAGAACCTAG)”, the “recombinant barcode read abundance (log10)” value is 0.219.

Take “AGAGAACCTTGGGTTCTAACCTGTTGCCT (site TGAGAACCTAG)”: the “recombinant barcode read abundance (log10)” value is 1.14.

For the sequence “AGAGAATCTTGGGTTCTAACCTGTTGCCT (site AGAGAATCTAG)”, the “recombinant barcode read abundance (log10)” value was found to be 1.28.

Take “AGAGAATCTTGGGTTCTAACCTGTTGCCT (site AGCGAATCTAG)”: the “recombinant barcode read abundance (log10)” value was 0.165.

In the case of “AGAGAATCTTGGGTTCTAACCTGTTGCCT (site AGGGAATCTAG)”, the “recombinant barcode read abundance (log10)” value is 0.13.

“AGAGAATCTTGGGTTCTAACCTGTTGCCT (site AGTGAATCTAG)”: the “recombinant barcode read abundance (log10)” value was 0.196.

As for “AGAGATGCTTGGGTTCTAACCTGTTGCAG (site AGAGATGCTCT)”, the “recombinant barcode read abundance (log10)” value was 1.8.

For the sequence “AGAGATGCTTGGGTTCTAACCTGTTGCAG (site AGAGGAGCTCT)”, the “recombinant barcode read abundance (log10)” value amounted to 0.289.

Consider “AGAGCCACTTGGGTTCTAACCTGTTGCTA (site AGAGCCACTTA)”, for which the “recombinant barcode read abundance (log10)” value was 2.09.

As for “AGAGCCACTTGGGTTCTAACCTGTTGCTA (site GCCATTCCTAT)”, the “recombinant barcode read abundance (log10)” value was determined as 0.0124.

Turning to “AGAGGGTCTTGGGTTCTAACCTGTTGCTT (site AGAGGGTCTAA)”, the “recombinant barcode read abundance (log10)” value was determined as 1.82.

On to “AGAGGGTCTTGGGTTCTAACCTGTTGCTT (site CGAGGGTCTAA)”, for which the “recombinant barcode read abundance (log10)” value was 0.186.

Consider “AGAGGGTCTTGGGTTCTAACCTGTTGCTT (site GGAGGGTCTAA)”, for which the “recombinant barcode read abundance (log10)” value amounted to 0.0269.

With “AGAGGGTCTTGGGTTCTAACCTGTTGCTT (site TGAGGGTCTAA)”, the “recombinant barcode read abundance (log10)” value was determined as 0.606.

On to “AGATCGGCTTGGGTTCTAACCTGTTGCCT (site AGATCGGCTAG)”, for which the “recombinant barcode read abundance (log10)” value came to 0.377.

In the case of “AGATCGGCTTGGGTTCTAACCTGTTGCCT (site AGGTCGGCTAG)”, the “recombinant barcode read abundance (log10)” value stood at 0.0375.

In the case of “AGATTGACTTGGGTTCTAACCTGTTGCCA (site AGATTCACTAG)”, the “recombinant barcode read abundance (log10)” value amounted to 0.328.

For “AGATTGACTTGGGTTCTAACCTGTTGCCA (site AGATTGACTTG)”, the “recombinant barcode read abundance (log10)” value is 0.193.

On to “AGATTGCCTTGGGTTCTAACCTGTTGCCT (site AGATTGCCTAG)”, for which the “recombinant barcode read abundance (log10)” value worked out at 0.489.

As for “AGATTGCCTTGGGTTCTAACCTGTTGCCT (site TGATTTCCTAG)”, the “recombinant barcode read abundance (log10)” value turned out to be 0.

Turning to “AGCAGAGCTTGGGTTCTAACCTGTTGCGG (site AGCAGAGCTCA)”, the “recombinant barcode read abundance (log10)” value stood at 1.12.

The values are drawn from the supplement of paper PMC11208160.
